From PMC12051620, “Molecular basis underlying the specificity of an antagonist AA92593 for mammalian melanopsins” (The Journal of Biological Chemistry, 2025) come the findings set out here.

As usually defined, the IC50 is the point on the concentration scale where inhibition reaches its midpoint. Read a low IC50 as greater potency in that assay.

In data set [1] the target is lanceolatum melanopsin F189^ECL2W/I207^5.42F mutant (Branchiostoma lanceolatum, UniProt A0A2Z4C1D4, F188W/I204F). In words: GsX GloSensor assay with Gsα/q11. In kind it is cell-based. The text has this: We assessed the effect of the antagonist on the mutants using the GsX GloSensor assay with Gsα/q11. […] Furthermore, the double substitution F189^ECL2W/I207^5.42F further increased the susceptibility of the lanceolatum melanopsin to the antagonist by ∼88% (Fig. 7, G, H, and I). The AA92593-induced inhibition of the double mutant F189^ECL2W/I207^5.42F was as efficient as that of human melanopsin (Fig. 7I). […] Taken together, the introduction of Trp-189^ECL2 and Phe-207^5.42 rendered lanceolatum melanopsin highly sensitive to the antagonist (Fig. 7, G, H, and I).
For GloSensor assay, opsins, GloSensor assay sensor (coded by pGlo-22F), and NanoBiT-tagged G proteins were transiently expressed in COS-1 cells (kindly provided from Dr David Farrens, Oregon Health and Science University) using PEI as described previously ([24], [52]). For the GsX GloSensor assay ([12], [13]), each well of a 96-well assay plate (Corning) was transfected with 50 ng opsin plasmid, 16.7 ng G protein plasmid, 50 ng pGlo-22F plasmid (Promega), and 500 ng PEI in 25 μl Opti-mem and 75 μl Dulbecco's modified Eagle's medium (D-MEM). For NanoBiT G protein dissociation assay, each well of a 96-well assay plate was transfected with 50 ng opsin plasmid, 5 ng Lg-BiT inserted Gqα (Gqα-LgBiT) plasmid, 25 ng Gβ1 plasmid, 25 ng Sm-BiT fused Gγ2 plasmid, 5 ng RIC8A plasmid, and 500 ng PEI in 25 μl Opti-mem and 75 μl D-MEM. For GFP-fluorescence microscopy, a 35-mm cell culture dish (IWAKI) was transfected with 2 μg melanopsin-GFP plasmid and 8 μg PEI in 400 μl Opti-mem and 1.2 ml D-MEM. […]
The transfected COS-1 cells were incubated at 37 °C, 5% CO2 for 2 days, and the medium was aspirated and exchanged with 50 μl of HBSS (145 mM NaCl, 10 mM D-glucose, 5 mM KCl, 1 mM MgCl2, 1.7 mM CaCl2, 1.5 mM NaHCO3, 10 mM Hepes, pH 7.4), containing 33.3, 20, 10, 2, 0.2, 0.02, 0.002, or 0 μM AA92593, 0.5% dimetyl sulfoxide (DMSO), and 4% (vol/vol) GloSensor cAMP reagent stock solution. […] Then, the cells were incubated at room temperature for 1 h, and luminescence changes were monitored. After incubation of the cells with AA92593, luminescence measurement was interrupted, the plate was ejected, and the cells were added with 50 μl of HBSS containing 0.2 μM 9-cis-retinal. […] Luminescence was measured using GM-2000 or GM-3510 microplate reader (Promega). Luminescence level of each well was measured every 30 s with integration time of 0.6 to 0.9 s. To illuminate opsins, luminescence measurement was interrupted, the plate was ejected, and the plate was illuminated by white light with CN-160 LED video light (light intensity, ∼9 mW/cm^2) (NEEWER). […] After illumination, luminescence measurement was resumed. The measured luminescence levels were normalized to the level at the starting point (time = 0 min). […]

Data set [2] is described as follows: dissolution in HBSS assay solution. In kind it is physicochemical. The conditions noted are these: HBSS solution pH 7.4, 0.5% DMSO. The method, then:
The transfected COS-1 cells were incubated at 37 °C, 5% CO2 for 2 days, and the medium was aspirated and exchanged with 50 μl of HBSS (145 mM NaCl, 10 mM D-glucose, 5 mM KCl, 1 mM MgCl2, 1.7 mM CaCl2, 1.5 mM NaHCO3, 10 mM Hepes, pH 7.4), containing 33.3, 20, 10, 2, 0.2, 0.02, 0.002, or 0 μM AA92593, 0.5% dimetyl sulfoxide (DMSO), and 4% (vol/vol) GloSensor cAMP reagent stock solution. Under our experimental conditions, >50 μM AA92593 was not fully dissolved in the HBSS solution, and we set maximal concentration of AA92593 (Glixx Laboratories) at 33.3 μM (final concentration of 16.7 μM, see below). Then, the cells were incubated at room temperature for 1 h, and luminescence changes were monitored. After incubation of the cells with AA92593, luminescence measurement was interrupted, the plate was ejected, and the cells were added with 50 μl of HBSS containing 0.2 μM 9-cis-retinal. […] Luminescence was measured using GM-2000 or GM-3510 microplate reader (Promega). Luminescence level of each well was measured every 30 s with integration time of 0.6 to 0.9 s. To illuminate opsins, luminescence measurement was interrupted, the plate was ejected, and the plate was illuminated by white light with CN-160 LED video light (light intensity, ∼9 mW/cm^2) (NEEWER). […] After illumination, luminescence measurement was resumed. […]

Setting [3] is: relative peak cAMP response vs no AA92593.

Each structure is given as a SMILES string.

lanceolatum melanopsin F189^ECL2W/I207^5.42F mutant, sequence (A0A2Z4C1D4 entry or part of it F188W/I204F): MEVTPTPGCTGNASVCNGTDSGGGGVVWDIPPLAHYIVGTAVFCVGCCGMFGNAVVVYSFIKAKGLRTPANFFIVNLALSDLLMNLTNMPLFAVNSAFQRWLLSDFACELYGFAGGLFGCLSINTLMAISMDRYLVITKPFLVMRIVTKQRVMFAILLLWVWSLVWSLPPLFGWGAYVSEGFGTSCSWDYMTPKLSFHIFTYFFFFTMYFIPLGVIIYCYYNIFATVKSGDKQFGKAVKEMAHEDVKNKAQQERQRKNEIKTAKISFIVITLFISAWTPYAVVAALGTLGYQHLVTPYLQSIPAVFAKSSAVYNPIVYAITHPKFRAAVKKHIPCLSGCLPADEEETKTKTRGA

Turning to `COc1ccc(S(=O)(=O)N2CCCCC2)cc1C` [AA92593], in data set [1], the “Hill fitting parameter rate of dose-response curve” value was −0.84 ± 0.75 and the IC50 was found to be 1.4 ± 0.88 µM. Besides, in data set [1] (setting [3]), the “Hill fitting parameter max of dose-response curve” value was 107.65 ± 12.6 and the “Hill fitting parameter min of dose-response curve” value is given as −5.22 ± 4.53. Besides, the “concentration at which AA92593 was not fully dissolved” value in data set [2] is above 50 µM.
